The values below come from US9062026B2, “Fused pyrimidines and substituted quinazolines as inhibitors of p97” (Cleave Biosciences, Inc., priority 2012, dated 2015).

A word on the IC50: it is the point on the concentration scale where inhibition reaches its midpoint.

The structures appear in SMILES notation.

Chain of p97 (P55072 whole entry): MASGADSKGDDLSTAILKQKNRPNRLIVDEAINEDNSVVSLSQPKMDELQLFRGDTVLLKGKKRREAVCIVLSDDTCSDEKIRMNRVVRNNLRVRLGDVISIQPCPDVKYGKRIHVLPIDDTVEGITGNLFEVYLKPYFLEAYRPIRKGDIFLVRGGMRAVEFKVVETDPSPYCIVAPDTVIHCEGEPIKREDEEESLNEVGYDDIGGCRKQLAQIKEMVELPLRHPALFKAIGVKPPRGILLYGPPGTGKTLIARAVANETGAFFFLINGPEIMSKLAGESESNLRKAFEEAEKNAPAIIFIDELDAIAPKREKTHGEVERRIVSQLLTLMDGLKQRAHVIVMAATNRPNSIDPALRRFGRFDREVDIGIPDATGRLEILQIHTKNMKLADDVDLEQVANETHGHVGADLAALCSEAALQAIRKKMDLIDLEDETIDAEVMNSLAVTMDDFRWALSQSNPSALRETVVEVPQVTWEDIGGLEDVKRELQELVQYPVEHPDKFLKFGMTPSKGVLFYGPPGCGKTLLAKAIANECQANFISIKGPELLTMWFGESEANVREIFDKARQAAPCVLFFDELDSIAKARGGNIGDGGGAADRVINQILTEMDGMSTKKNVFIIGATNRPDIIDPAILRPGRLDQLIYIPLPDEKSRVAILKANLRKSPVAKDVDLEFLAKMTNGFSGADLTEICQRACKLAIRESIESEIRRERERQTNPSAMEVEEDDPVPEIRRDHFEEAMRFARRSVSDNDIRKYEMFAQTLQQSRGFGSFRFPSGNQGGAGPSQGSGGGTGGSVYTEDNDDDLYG

In the first assay the target is p97 (Homo sapiens (Human), UniProt P55072). Briefly: P97 ATPase biochem assay (ADP Glo). It is filed as biochemical. To be noted: 20 nM p97, 20 μM ATP, 37° C., 15 minutes; read-out: p97 biochem IC50. On the procedure:
The ATPase assay is performed according the following protocol: Purified enzyme (20 nM p97), substrate (20 μM ATP) and a dose titration of compounds are mixed in buffer (50 mM TRIS pH 7.5, 20 mM MgCl2, 0.02% TX-100, 1 mM DTT, 0.2% (v/v) glycerol) and incubated at 37° C. for 15 minutes. The reaction is terminated and the level of product generated is measured using the ADP Glo Assay Kit (Promega, Madison Wis.). Plotting product generated versus compound concentration and using a four-parameter fit model generates an IC50 value for each compounds.
In general terms: ADP-Glo turns the ADP formed in a reaction into a luminescent signal.
`COc1cccc2c(NCc3ccccc3)nc(-c3c(N)[nH]c4ccccc34)nc12`: the half-maximal inhibitory concentration (IC50) is under 2 µM. On the same count and under the same terms, next, `COc1cc2ccccc2n1-c1nc2c(c(NCc3ccccc3)n1)CCCC2` [drawing 226]: under 2 µM; `CC(=O)C1CCc2c(nc(-n3c(CN)cc4ccccc43)nc2NCc2ccccc2)C1` (centres unmarked): under 2 µM. The same measure, in the same setting: next, `COc1cccc2c(NCc3ccccc3)nc(N(C(N)=O)c3ccccc3)nc12`: under 5 µM; `Cc1cc2ccccc2n1-c1nc2c(c(NCc3ccccc3)n1)CCN(C(=O)OC(C)(C)C)C2`: under 2 µM. For the compound `COc1nc2ccccc2n1-c1nc2c(c(NCc3ccccc3)n1)CNCC2`, the IC50 was under 2 µM. On the same count and under the same terms, the result for `Cc1cc2ccccc2n1-c1nc(NCc2ccccc2)c2cccc(C#N)c2n1` reads under 2 µM. As for `CNc1nc2ccccc2n1-c1nc(NCc2ccccc2)c2cccc(OC)c2n1`, the IC50 is under 2 µM. On the same count and under the same terms, the result for `C=CC(=O)NCc1cc2ccccc2n1-c1nc(NCc2ccccc2)c2cccc(OC)c2n1` reads under 2 µM; that for `COCCOc1cccc2c(NCc3ccccc3)nc(-n3c(OC)nc4ccccc43)nc12` [drawing 222], under 2 µM; that for `CC(N)c1cc2ccccc2n1-c1nc2c(c(NCc3ccccc3)n1)CCCC2` (centres unmarked), under 2 µM. Same read-out and setting: the result for `CC(=O)NCc1cc2ccccc2n1-c1nc2c(c(NCc3ccccc3)n1)CCCC2` [drawing 230] reads under 2 µM; that for `Cc1cc2ccccc2n1-c1nc2c(c(NCc3ccccc3)n1)CNCC2`, under 2 µM; that for `COc1cccc2c(NCc3ccccc3)nc(-n3c(/C=C/C#N)cc4ccccc43)nc12` [drawing 242], under 2 µM. With `COc1cccc2c(NCc3ccccc3)nc(-n3c(=O)[nH]c4ccccc43)nc12`, the IC50 was under 2 µM. Consider `Cc1cc2ccccc2n1-c1nc2c(c(NCc3ccccc3)n1)CCNC2`, for which the IC50 is under 2 µM. Still for that read-out and setting: the result for `COc1cccc2c(NCc3ccccc3)nc(N3CCOc4ccccc43)nc12` reads under 5 µM. For `CNCCN1CCc2c(nc(-n3c(CN)cc4ccccc43)nc2NCc2ccccc2)C1`, the IC50 is under 10 µM. For the compound `COc1cccc2c(NCc3ccccc3)nc(-n3c(=O)n(C)c4ccccc43)nc12`, the IC50 was under 5 µM. Still for that read-out and setting: next, `COc1cccc2c(NCc3ccccc3)nc(-n3c(C)nc4ccccc43)nc12`: under 2 µM. For `Cc1cc2ccccc2n1-c1nc2c(c(NCc3ccccc3)n1)CCCC2`, the IC50 is under 2 µM.

As for `COCCOc1cccc2c(NCc3ccccc3)nc(-n3c(N)nc4ccccc43)nc12`, the half-inhibitory concentration (IC50) is under 2 µM.

Consider `NCCOc1cccc2c(NCc3ccccc3)nc(-n3c(N)nc4ccccc43)nc12`, for which the IC50 is under 2 µM.

`CCc1nc2ccccc2n1-c1nc(NCc2ccccc2)c2cccc(OC)c2n1`: the IC50 is under 2 µM. The same measure, in the same setting: the result for `COc1cccc2c(NCc3ccccc3)nc(-n3ccc4ccccc43)nc12` reads under 2 µM; that for `COc1cccc2c(NCc3ccccc3)nc(C3c4ccccc4CN3C)nc12` (centres unmarked), under 10 µM; that for `CS(=O)(=O)NCc1cc2ccccc2n1-c1nc2c(c(NCc3ccccc3)n1)CCCC2` [drawing 233], under 2 µM.

For `NCc1cc2ccccc2n1-c1cc(NCc2ccccc2)c2c(n1)CN(C(N)=O)CC2`, the IC50 is under 2 µM. As for `Cc1cc2ccccc2n1-c1nc(NCc2ccccc2)c2cccc(C(N)=O)c2n1`, the IC50 is under 2 µM. On the same count and under the same terms, next, `COc1cccc2c(NCc3ccccc3)nc(-n3c(N(C)C)nc4ccccc43)nc12`: under 2 µM; `NC(=O)COc1cccc2c(NCc3ccccc3)nc(-n3c(N)nc4ccccc43)nc12`: under 2 µM; `CCN1CCc2c(nc(-n3c(CN)cc4ccccc43)nc2NCc2ccccc2)C1`: under 2 µM. As to `Cc1cc2ccccc2n1-c1nc2c(c(NCc3ccccc3)n1)COC2`, the IC50 is under 2 µM.

Take `COc1cccc2c(NCc3ccoc3)nc(-n3c(N)nc4ccccc43)nc12`: the IC50 was under 5 µM. Consider `COc1cc2ccccc2n1-c1nc(NCc2ccccc2)c2c(n1)C(=O)N(C(=O)OC(C)(C)C)CC2`, for which the IC50 was under 2 µM. On to `Nc1nc2ccccc2n1-c1nc2c(c(NCc3ccccc3)n1)CCC2`, for which the IC50 is under 2 µM. The same measure, in the same setting: next, `COc1cccc2c(NCc3ccccc3)nc(-n3c(C)nc(C)c3C)nc12`: under 25 µM; `COc1cccc2c(NCc3ccccc3)nc(-n3c(CNC(C)=O)cc4ccccc43)nc12` [drawing 223]: under 2 µM; `COCc1nc(-n2c(N)nc3ccccc32)nc(NCc2ccccc2)c1C`: under 5 µM.

Still in this assay, the particulars now being: read-out: p97 IC50.
Regarding `COc1cccc2c(NCc3ccccc3)nc(-n3c(CNC(C)=O)cc4ccccc43)nc12` [N-({1-[4-(benzylamino)-8-methoxyquinazolin-2-yl]-1H-indol-2-yl}methyl)acetamide], the IC50 was under 0.3 µM. Still for that read-out and setting: next, `COCC(=O)N1CCc2nc(-n3c(C)cc4c(C#N)cccc43)nc(NCc3ccccc3)c2C1` [1-[4-(benzylamino)-6-(2-methoxyacetyl)-5H,6H,7H,8H-pyrido[4,3-d]pyrimidin-2-yl]-2-methyl-1H-indole-4-carbonitrile]: under 0.03 µM; `CCN1CCc2nc(-n3c(C)cc4c(C#N)cccc43)nc(NCc3ccccc3)c2C1` [1-[4-(benzylamino)-6-ethyl-5H,6H,7H,8H-pyrido[4,3-d]pyrimidin-2-yl]-2-methyl-1H-indole-4-carbonitrile]: under 0.1 µM; `COCCOc1cccc2c(NCc3ccccc3)nc(-n3c(C)nc4ccccc43)nc12` [N-benzyl-8-(2-methoxyethoxy)-2-(2-methyl-1H-1,3-benzodiazol-1-yl)quinazolin-4-amine]: under 0.3 µM. The same measure, in the same setting: next, `Cc1cc2c(C#N)cccc2n1-c1nc2c(c(NCc3ccccc3)n1)CCCC2` [1-[4-(benzylamino)-5,6,7,8-tetrahydroquinazolin-2-yl]-2-methyl-1H-indole-4-carbonitrile]: under 0.1 µM; `COCCOc1cccc2c(NCc3ccccc3)nc(-n3c(C(C)N)cc4ccccc43)nc12` (centres unmarked) [2-[2-(1-aminoethyl)-1H-indol-1-yl]-N-benzyl-8-(2-methoxyethoxy)quinazolin-4-amine]: under 0.3 µM.

`COc1cccc2c(NCc3ccccc3)nc(-n3c(/C=C\C#N)cc4ccccc43)nc12` [(2Z)-3-{1-[4-(benzylamino)-8-methoxyquinazolin-2-yl]-1H-indol-2-yl}prop-2-enenitrile]: the IC50 is under 0.3 µM. `c1ccc(CNc2nc(-n3c(N4CCOCC4)nc4ccccc43)nc3c2CCCC3)cc1` [N-benzyl-2-[2-(morpholin-4-yl)-1H-1,3-benzodiazol-1-yl]-5,6,7,8-tetrahydroquinazolin-4-amine]: the IC50 was under 0.3 µM. The same measure, in the same setting: next, `OCc1nc2ccccc2n1-c1nc2c(c(NCc3ccccc3)n1)CCCC2` [{1-[4-(benzylamino)-5,6,7,8-tetrahydroquinazolin-2-yl]-1H-1,3-benzodiazol-2-yl}methanol]: under 0.3 µM; `Cc1nc2ccccc2n1-c1nc2c(c(NCc3ccccc3)n1)CCCC2` [N-benzyl-2-(2-methyl-1H-1,3-benzodiazol-1-yl)-5,6,7,8-tetrahydroquinazolin-4-amine]: under 0.3 µM; `COCCOc1cccc2c(NCc3ccccc3)nc(-n3c(CNS(C)(=O)=O)cc4ccccc43)nc12` [N-({1-[4-(benzylamino)-8-(2-methoxyethoxy)quinazolin-2-yl]-1H-indol-2-yl}methyl)methanesulfonamide]: under 0.1 µM.
